Molecular target: T1, human PDE5 (Homo sapiens, UniProt O76074)
T1 construct: from tissue; host or cells: platelets from fresh blood of human donors (lysate, 10,000 g supernatant)
Test: Inhibition of the type 5 phosphodiesterase (PDE5) activity, modified SPA test with platelet lysate
Format: biochemical
Conditions: PDE5 from human platelet lysate, 0.5 μM cGMP
Method: Method for Measuring Inhibition of the Type 5 Phosphodiesterase (PDE5) Activity:
As a source for human PDE5, platelets are used. For that purpose, 150 ml fresh blood from human donors anticoagulated with citrate [final concentration 0.3% (w/v)] is centrifuged at 200 g for 10 min to obtain the so-called platelet-rich-plasma (PRP) as a supernatant. 1/10 volume of ACD solution (85 mM Na3-citrate, 111 mM D-glucose, 71 mM citric acid, pH 4.4) is added to 9/10 volume of PRP. After centrifugation (1,400 g, 10 min) the cell pellet is resuspended in 3 ml homogenization buffer (NaCl 140 mM, KCl 3.8 mM, EGTA (ethylene glycol tetraacetic acid) 1 mM, MgCl2 1 mM, Tris-HCl 20 mM, beta-mercaptoethanol 1 mM, pH 8.2) plus protease-inhibitor mix giving rise to the final concentrations of 0.5 mM Pefablock (Roche), 10 μM Leupeptin, 5 μM Trypsininhibitor, 2 mM Benzamidin and 10 μM Pepstatin A. The suspension is sonified and thereafter centrifuged for 15 min at 10,000 g. The resulting supernatant (platelet lysate) is used for enzymatic testings.
PDE5A1 activity is inhibited by the compounds of the invention in a modified SPA (scintillation proximity assay) test, supplied by Amersham Biosciences (see procedural instructions “phosphodiesterase [3H]cAMP SPA enzyme assay, code TRKQ 7090”), carried out in 96-well microtitre plates (MTP's). The test volume is 100 μl and contains 20 mM Tris buffer (pH 7.4), 0.1 mg of BSA (bovine serum albumin)/ml, 5 mM Mg^2+, 1 μM motapizone, 10 nM PDE2 inhibitor 2-(3,4-dimethoxybenzyl)-7-[(1R,2R)-2-hydroxy-1-(2-phenylethyl)propyl]-5-methylimidazo[5,1-f][1,2,4]triazin-4(3H)-one, 0.5 μM cGMP (cyclic guanosine monophosphate) (including about 50,000 cpm of [3H]cGMP as a tracer), 1 μl of the respective compound dilution in dimethylsulfoxide (DMSO) and sufficient PDE5-containing platelet lysat (10,000×g supernatant, see above) to ensure that 10-20 wt % of the cGMP is converted under the said experimental conditions. […] After a preincubation of 5 min at 37° C., the reaction is started by adding the substrate (cGMP) and the assay is incubated for a further 15 min; after that, it is stopped by adding SPA beads (50 μl). In accordance with the manufacturer's instructions, the SPA beads had previously been resuspended in water, but are then diluted 1:3 (v/v) in water; the diluted solution also contains 3 mM […] (IBMX) to ensure a complete PDE activity stop. After the beads have been sedimented (>30 min), the MTP's are analyzed in commercially available luminescence detection de-vices. The corresponding IC50 values of the compounds for the inhibition of PDE activity are deter-mined from the concentration-effect curves by means of non-linear regression.

| SMILES | IC50 [nM] |
| --- | --- |
| CCOC(=O)N1CC[C@H](NC(=O)c2c[nH]c3c(-c4c(OCC5CC5)ccc5c4OCO5)ncnc23)C1 [Example 22, (S)-3-({1-[4-(5-Cyclopropylmethoxy-benzo[1,3]dioxol-4-yl)-5H-pyrrolo[3,2-d]pyrimidin-7-yl]-methanoyl}-amino)-pyrrolidine-1-carboxylic acid ethyl ester] | 0.49 |
| O=CN1CCC(CNC(=O)c2c[nH]c3c(-c4c(OCC5CC5)ccc5c4OCO5)ncnc23)CC1 [Example 23, 4-(5-Cyclopropylmethoxy-benzo[1,3]dioxol-4-yl)-5H-pyrrolo[3,2-d]pyrimidine-7-carboxylic acid (1-formyl-piperidin-4-ylmethyl)-amide] | 0.447 |
| CC(=O)N1CCC(CNC(=O)c2c[nH]c3c(-c4c(OCC5CC5)ccc5c4OCO5)ncnc23)CC1 [Example 24, 4-(5-Cyclopropylmethoxy-benzo[1,3]dioxol-4-yl)-5H-pyrrolo[3,2-d]pyrimidine-7-carboxylic acid (1-acetyl-piperidin-4-ylmethyl)-amide] | 0.302 |
| O=C(NCC1CCN(C(=O)C2CC2)CC1)c1c[nH]c2c(-c3c(OCC4CC4)ccc4c3OCO4)ncnc12 [Example 25, 4-(5-Cyclopropylmethoxy-benzo[1,3]dioxol-4-yl)-5H-pyrrolo[3,2-d]pyrimidine-7-carboxylic acid [1-(1-cyclopropyl-methanoyl)-piperidin-4-ylmethyl]-amide] | 0.24 |
| COCC(=O)N1CCC(CNC(=O)c2c[nH]c3c(-c4c(OCC5CC5)ccc5c4OCO5)ncnc23)CC1 [Example 26, 4-(5-Cyclopropylmethoxy-benzo[1,3]dioxol-4-yl)-5H-pyrrolo[3,2-d]pyrimidine-7-carboxylic acid [1-(2-methoxy-ethanoyl)-piperidin-4-ylmethyl]-amide] | 0.457 |
| CCOC(=O)N1CCC(CNC(=O)c2c[nH]c3c(-c4c(OCC5CC5)ccc5c4OCO5)ncnc23)CC1 [Example 27, 4-[({1-[4-(5-Cyclopropylmethoxy-benzo[1,3]dioxol-4-yl)-5H-pyrrolo[3,2-d]pyrimidin-7-yl]-methanoyl}-amino)-methyl]-piperidine-1-carboxylic acid ethyl ester] | 0.372 |
| O=CN1CCCC(CNC(=O)c2c[nH]c3c(-c4c(OCC5CC5)ccc5c4OCO5)ncnc23)C1 (stereo not drawn) [Example 28, 4-(5-Cyclopropylmethoxy-benzo[1,3]dioxol-4-yl)-5H-pyrrolo[3,2-d]pyrimidine-7-carboxylic acid (1-formyl-piperidin-3-ylmethyl)-amide] | 0.692 |
| CCC(=O)N1CCCC(CNC(=O)c2c[nH]c3c(-c4c(OCC5CC5)ccc5c4OCO5)ncnc23)C1 (stereo not drawn) [Example 29, 4-(5-Cyclopropylmethoxy-benzo[1,3]dioxol-4-yl)-5H-pyrrolo[3,2-d]pyrimidine-7-carboxylic acid (1-propionyl-piperidin-3-ylmethyl)-amide] | 0.275 |
| COCC(=O)N1CCCC(CNC(=O)c2c[nH]c3c(-c4c(OCC5CC5)ccc5c4OCO5)ncnc23)C1 (stereo not drawn) [Example 30, 4-(5-Cyclopropylmethoxy-benzo[1,3]dioxol-4-yl)-5H-pyrrolo[3,2-d]pyrimidine-7-carboxylic acid [1-(2-methoxy-acetyl)piperidin-3-ylmethyl]-amide] | 0.479 |
| CCOC(=O)N1CCCC(CNC(=O)c2c[nH]c3c(-c4c(OCC5CC5)ccc5c4OCO5)ncnc23)C1 (stereo not drawn) [Example 31, 3-({[4-(5-Cyclopropylmethoxy-benzo[1,3]dioxol-4-yl)-5H-pyrrolo[3,2-d]pyrimidine-7-carbonyl]-amino}-methyl)-piperidine-1-carboxylic acid ethyl ester] | 0.224 |
| O=CN1CCC(CNC(=O)c2c[nH]c3c(-c4c(OCC5CC5)ccc5c4OCO5)ncnc23)C1 (stereo not drawn) [Example 32, 4-(5-Cyclopropylmethoxy-benzo[1,3]dioxol-4-yl)-5H-pyrrolo[3,2-d]pyrimidine-7-carboxylic acid (1-formyl-pyrrolidin-3-ylmethyl)-amide] | 1.1 |
| COCC(=O)N1CCC(CNC(=O)c2c[nH]c3c(-c4c(OCC5CC5)ccc5c4OCO5)ncnc23)C1 (stereo not drawn) [Example 33, 4-(5-Cyclopropylmethoxy-benzo[1,3]dioxol-4-yl)-5H-pyrrolo[3,2-d]pyrimidine-7-carboxylic acid [1-(2-methoxy-acetyl)-pyrrolidin-3-ylmethyl]-amide] | 1.51 |
| CCOC(=O)N1CCC(CNC(=O)c2c[nH]c3c(-c4c(OCC5CC5)ccc5c4OCO5)ncnc23)C1 (stereo not drawn) [Example 34, 3-({[4-(5-Cyclopropylmethoxy-benzo[1,3]dioxol-4-yl)-5H-pyrrolo[3,2-d]pyrimidine-7-carbonyl]-amino}-methyl)-pyrrolidine-1-carboxylic acid ethyl ester] | 0.347 |
| O=CN1CCOC(CNC(=O)c2c[nH]c3c(-c4c(OCC5CC5)ccc5c4OCO5)ncnc23)C1 (stereo not drawn) [Example 35, 4-(5-Cyclopropylmethoxy-benzo[1,3]dioxol-4-yl)-5H-pyrrolo[3,2-d]pyrimidine-7-carboxylic acid (4-formyl-morpholin-2-ylmethyl)-amide] | 0.708 |
| CCC(=O)N1CCOC(CNC(=O)c2c[nH]c3c(-c4c(OCC5CC5)ccc5c4OCO5)ncnc23)C1 (stereo not drawn) [Example 36, 4-(5-Cyclopropylmethoxy-benzo[1,3]dioxol-4-yl)-5H-pyrrolo[3,2-d]pyrimidine-7-carboxylic acid (4-propionyl-morpholin-2-ylmethyl)-amide] | 0.49 |
| COCC(=O)N1CCOC(CNC(=O)c2c[nH]c3c(-c4c(OCC5CC5)ccc5c4OCO5)ncnc23)C1 (stereo not drawn) [Example 37, 4-(5-Cyclopropylmethoxy-benzo[1,3]dioxol-4-yl)-5H-pyrrolo[3,2-d]pyrimidine-7-carboxylic acid [4-(2-methoxy-acetyl)morpholin-2-ylmethyl]-amide] | 0.912 |
| CCOC(=O)N1CCOC(CNC(=O)c2c[nH]c3c(-c4c(OCC5CC5)ccc5c4OCO5)ncnc23)C1 (stereo not drawn) [Example 38, 2-({[4-(5-Cyclopropylmethoxy-benzo[1,3]dioxol-4-yl)-5H-pyrrolo[3,2-d]pyrimidine-7-carbonyl]-amino}-methyl)-morpholine-4-carboxylic acid ethyl ester] | 0.398 |
| CC(=O)N1CC(NC(=O)c2c[nH]c3c(-c4c(OCC5CC5)ccc5c4OCO5)ncnc23)C1 [Example 39, 4-(5-Cyclopropylmethoxy-benzo[1,3]dioxol-4-yl)-5H-pyrrolo[3,2-d]pyrimidine-7-carboxylic acid (1-acetyl-azetidin-3-yl)-amide] | 0.776 |
| CCC(=O)N1CC(NC(=O)c2c[nH]c3c(-c4c(OCC5CC5)ccc5c4OCO5)ncnc23)C1 [Example 40, 4-(5-Cyclopropylmethoxy-benzo[1,3]dioxol-4-yl)-5H-pyrrolo[3,2-d]pyrimidine-7-carboxylic acid (1-propionyl-azetidin-3-yl)-amide] | 0.427 |
| COCC(=O)N1CC(NC(=O)c2c[nH]c3c(-c4c(OCC5CC5)ccc5c4OCO5)ncnc23)C1 [Example 41, 4-(5-Cyclopropylmethoxy-benzo[1,3]dioxol-4-yl)-5H-pyrrolo[3,2-d]pyrimidine-7-carboxylic acid [1-(2-methoxy-ethanoyl)-azetidin-3-yl]amide] | 0.891 |
| CCOC(=O)N1CC(NC(=O)c2c[nH]c3c(-c4c(OCC5CC5)ccc5c4OCO5)ncnc23)C1 [Example 42, 3-({1-[4-(5-Cyclopropylmethoxy-benzo[1,3]dioxol-4-yl)-5H-pyrrolo[3,2-d]pyrimidin-7-yl]-methanoyl}-amino)-azetidine-1-carboxylic acid ethyl ester] | 0.191 |

— patent US8445501B2, “Substituted 7-carboxamido-pyrrolo[3,2-d]pyrimidines” (Takeda GmbH, priority 2008, dated 2013)
